Our source for the Activity values is ChEMBL document CHEMBL3880427, “P70 S6 kinase inhibitors” (2012).

Format in all cases: functional, HCT-116
The nature of experiment [1]: Antitumor activity against human HCT116 cells xenografted in athymic nude mouse assessed as tumor volume at 30 mg/kg, po bid administered for 21 days measured on day 8 post last dose (reference value: 38.5 +/- 4.1 mm'3). On the technique in general: Xenograft models place foreign cells or tissue in a host animal.
Experiment [2] in a line: Antitumor activity against human HCT116 cells xenografted in athymic nude mouse assessed as tumor volume at 30 mg/kg, po bid administered for 21 days measured on day 13 post last dose (reference value: 100.9 +/- 13.7 mm'3).
Experiment [3] is described as follows: Antitumor activity against human HCT116 cells xenografted in athymic nude mouse assessed as tumor volume at 30 mg/kg, po bid administered for 21 days measured on day 16 post last dose (reference value: 163.1 +/- 25.7 mm'3).
Experiment [4] is described as follows: Antitumor activity against human HCT116 cells xenografted in athymic nude mouse assessed as tumor volume at 30 mg/kg, po bid administered for 21 days measured on day 20 post last dose (reference value: 287.1 +/- 31.9 mm'3).
Experiment [5] is described as follows: Antitumor activity against human HCT116 cells xenografted in athymic nude mouse assessed as tumor volume at 30 mg/kg, po bid administered for 21 days measured on day 23 post last dose (reference value: 402.2 +/- 43.1 mm'3).
Experiment [6] in a line: Antitumor activity against human HCT116 cells xenografted in athymic nude mouse assessed as tumor volume at 30 mg/kg, po bid administered for 21 days measured on day 27 post last dose (Rvb= 545 +/- 41.1 mm'3).
Experiment [7] is described as follows: Antitumor activity against human HCT116 cells xenografted in athymic nude mouse assessed as tumor volume at 60 mg/kg, po bid administered for 21 days measured on day 8 post last dose (reference value: 38.5 +/- 4.1 mm'3).
A short description of experiment [8]: Antitumor activity against human HCT116 cells xenografted in athymic nude mouse assessed as tumor volume at 60 mg/kg, po bid administered for 21 days measured on day 13 post last dose (reference value: 100.9 +/- 13.7 mm'3).
Experiment [9] is described as follows: Antitumor activity against human HCT116 cells xenografted in athymic nude mouse assessed as tumor volume at 60 mg/kg, po bid administered for 21 days measured on day 16 post last dose (reference value: 163.1 +/- 25.7 mm'3).
Experiment [10] can be described thus: Antitumor activity against human HCT116 cells xenografted in athymic nude mouse assessed as tumor volume at 60 mg/kg, po bid administered for 21 days measured on day 20 post last dose (reference value: 287.1 +/- 31.9 mm'3).
Experiment [11] is described as follows: Antitumor activity against human HCT116 cells xenografted in athymic nude mouse assessed as tumor volume at 60 mg/kg, po bid administered for 21 days measured on day 23 post last dose (reference value: 402.2 +/- 43.1 mm'3).
Experiment [12] in a line: Antitumor activity against human HCT116 cells xenografted in athymic nude mouse assessed as tumor volume at 60 mg/kg, po bid administered for 21 days measured on day 27 post last dose (Rvb= 545 +/- 41.1 mm'3).
The nature of experiment [13]: Antitumor activity against human HCT116 cells xenografted in athymic nude mouse assessed as tumor volume at 60 mg/kg, po qd administered for 21 days measured on day 8 post last dose (reference value: 38.5 +/- 4.1 mm'3).
Experiment [14] in a line: Antitumor activity against human HCT116 cells xenografted in athymic nude mouse assessed as tumor volume at 60 mg/kg, po qd administered for 21 days measured on day 13 post last dose (reference value: 100.9 +/- 13.7 mm'3).
A short description of experiment [15]: Antitumor activity against human HCT116 cells xenografted in athymic nude mouse assessed as tumor volume at 60 mg/kg, po qd administered for 21 days measured on day 16 post last dose (reference value: 163.1 +/- 25.7 mm'3).
Experiment [16] is described as follows: Antitumor activity against human HCT116 cells xenografted in athymic nude mouse assessed as tumor volume at 60 mg/kg, po qd administered for 21 days measured on day 20 post last dose (reference value: 287.1 +/- 31.9 mm'3).
Experiment [17] in a line: Antitumor activity against human HCT116 cells xenografted in athymic nude mouse assessed as tumor volume at 60 mg/kg, po qd administered for 21 days measured on day 23 post last dose (reference value: 402.2 +/- 43.1 mm'3).
A short description of experiment [18]: Antitumor activity against human HCT116 cells xenografted in athymic nude mouse assessed as tumor volume at 60 mg/kg, po qd administered for 21 days measured on day 27 post last dose (Rvb= 545 +/- 41.1 mm'3).

In the case of `Cl.FC(F)(F)c1cccc(-c2c[nH]c(C3CCN(c4ncnc5[nH]ncc45)CC3)n2)c1`, the Activity in experiment [1] is on record as 36.5 mm3; in experiment [2] it was 58.7 mm3; in experiment [3], 90.9 mm3; in [4] it was 134.6 mm3; in experiment [5], 192.7 mm3; in [6], 296.3 mm3. The Activity was 28.8 mm3 in [7]; 42.1 mm3 in [8]; 72.1 mm3 in experiment [9]; 139 mm3 in experiment [10]; 188.4 mm3 in experiment [11]; 280 mm3 in experiment [12]. The Activity was 30.6 mm3 in [13]; 57.8 mm3 in experiment [14]; 85 mm3 in experiment [15]; 142.5 mm3 in experiment [16]; 194.5 mm3 in experiment [17]; 252.7 mm3 in experiment [18].
